Like-named read-outs stand apart in the source and are kept apart here.
Columns and labels:
Format in all cases: cell-based
[1] = tested on: Escherichia coli TK-3113 strain producing IMP-8 (strain D); assay: MIC of test compound alone or with β-lactamase inhibitor at 4 μg/mL
Procedure: (§1) By using a broth microdilution method, the combinational effect of a test compound and a β-lactamase inhibitor was evaluated.
(§2) The evaluation test for antibacterial activity was performed in the same manner as in Test Example 1.
Escherichia coli TK-3113 strain producing IMP-8 (hereinafter, called strain D),
(§3) An antibacterial activity evaluation test was performed in the same manner as in Test Example 6.
(§4) As the bacterial strain, the strains B, C, and D producing β-lactamase and a Klebsiella pneumoniae Y-1069 strain (hereinafter, called strain F) producing OXA-48 and CTX-M-15 were used.

[2] = tested on: Klebsiella pneumoniae Y-1133 strain producing NDM-1, OXA-48, and CTX-M-15 (strain C); assay: as above
Procedure: as §1, §2
Klebsiella pneumoniae Y-1133 strain producing NDM-1, OXA-48, and CTX-M-15 (hereinafter, called strain C),
as §3, §4

[3] = tested on: NDM-1-containing Klebsiella pneumoniae strain (Y-1007); assay: Antibacterial activity evaluation test, MIC by broth microdilution (CLSI); conditions: Klebsiella pneumoniae Y-1007
Method in brief: (§5)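 MIC (μg/mL) = lowest drug concentration showing no visible bacterial growth after 16–20 h at 35° C. in cation-adjusted Mueller Hinton broth. Inoculum: agar-grown cells at 0.5 McFarland, diluted 10-fold.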

[4] = tested on: Pseudomonas aeruginosa strain ATCC27853; assay: as above; conditions: Pseudomonas aeruginosa, ATCC27853
Method in brief: as §5

[5] = tested on: AmpC-derepressed Pseudomonas aeruginosa mutant strain (S-3028); assay: as above; conditions: Pseudomonas aeruginosa S-3028
Method in brief: as §5

[6] = tested on: CTX-M-15-containing Escherichia coli strain (TK-1747); assay: as above; conditions: Escherichia coli TK-1747
Method in brief: as §5

[7] = tested on: KPC-2-containing Klebsiella pneumoniae strain (Y-995); assay: as above; conditions: Klebsiella pneumoniae Y-995
Method in brief: as §5

[8] = tested on: IMP-1-containing Pseudomonas aeruginosa strain (S-2838); assay: as above; conditions: Pseudomonas aeruginosa S-2838
Method in brief: as §5

[9] = tested on: OXA-48-containing Klebsiella pneumoniae strain (Y-1062); assay: as above; conditions: Klebsiella pneumoniae Y-1062
Method in brief: as §5

[10] = tested on: VIM-2-containing Pseudomonas aeruginosa strain (S-3779); assay: as above; conditions: Pseudomonas aeruginosa S-3779
Method in brief: as §5

[11] = tested on: GES-19 and GES-20-containing Pseudomonas aeruginosa strain (S-3759); assay: as above; conditions: Pseudomonas aeruginosa S-3759
Method in brief: as §5

[12] = tested on: Klebsiella pneumoniae Y-1069 strain producing OXA-48 and CTX-M-15 (strain F); assay: MIC of test compound alone or with β-lactamase inhibitor at 4 μg/mL; conditions: for MIC: Klebsiella pneumoniae, Strain F
Procedure: as §2, §3, §4

[13] = tested on: Klebsiella pneumoniae Y-1020 strain producing KPC-3 and SHV-12 (strain B); assay: as above; conditions: for MIC: Strain B; for antibacterial activity in combination with a β-lactamase inhibitor versus without: for all the bacterial strains (strains A to E), summary of Tables 43 to 47
Procedure: as §1, §2

[14] = tested on: Escherichia coli TK-1747 strain producing CTX-M-15 (strain A); assay: as above
Procedure: as §1, §2
Escherichia coli TK-1747 strain producing CTX-M-15 (hereinafter, called strain A),

[15] = tested on: Escherichia coli TK-1765 strain producing CMY-2 (strain E); assay: as above
Procedure: as §1, §2
Escherichia coli TK-1765 strain producing CMY-2 (hereinafter, called strain E)

[16] = test compound alone (β-lactamase inhibitor N/A)

With `CC(C)(O/N=C(\C(=O)NC1C(=O)N2C[C@@](C(=O)O)(N3CCN(NC(=O)C(=O)c4c(F)cc(O)c(O)c4Cl)C3=O)S[C@H]12)c1csc(N)n1)C(=O)O` (some centres unmarked) [Example 143] the MIC ([1]; Escherichia coli, test compound alone (β-lactamase inhibitor N/A)) was 0.5 µg/mL, the MIC ([1]; Escherichia coli, with NAC at 4 μg/mL) was under 0.015 µg/mL and the MIC ([1]; Escherichia coli, with ZID at 4 μg/mL) was under 0.015 µg/mL. For the same compound, the MIC ([2]; Klebsiella pneumoniae, with NAC at 4 μg/mL) was 0.06 µg/mL, the MIC ([2]; Klebsiella pneumoniae, with ZID at 4 μg/mL) was under 0.015 µg/mL and the Antibacterial activity (MIC) Klebsiella pneumoniae Y-1007 [3] was under 0.06 µg/mL. It also gave an Antibacterial activity (MIC) Pseudomonas aeruginosa ATCC 27853 [4] of 0.5 µg/mL, an Antibacterial activity (MIC) Pseudomonas aeruginosa S-3028 [5] of 0.12 µg/mL and an Antibacterial activity (MIC) Escherichia coli TK-1747 [6] of 0.12 µg/mL. The Antibacterial activity (MIC) Klebsiella pneumoniae Y-995 [7] was 0.12 µg/mL, the Antibacterial activity (MIC) Pseudomonas aeruginosa S-2838 [8] was 0.5 µg/mL and the Antibacterial activity (MIC) Klebsiella pneumoniae Y-1062 [9] was 2 µg/mL. It also gave an Antibacterial activity (MIC) Pseudomonas aeruginosa S-3779 [10] of 0.25 µg/mL, an Antibacterial activity (MIC) Pseudomonas aeruginosa S-3759 [11] of 1 µg/mL and an MIC [12, 16] of 8 µg/mL. For the same compound, the MIC ([12]; with AVI at 4 μg/mL) was 0.25 µg/mL, the MIC ([12]; with CVA at 4 μg/mL) was 4 µg/mL and the MIC ([12]; with NAC at 4 μg/mL) was 0.12 µg/mL. The MIC ([12]; with SBT at 4 μg/mL) was 4 µg/mL, the MIC ([12]; with TAZ at 4 μg/mL) was 4 µg/mL and the MIC ([12]; with ZID at 4 μg/mL) was under 0.015 µg/mL. For the same compound, the “antibacterial activity in combination with a β-lactamase inhibitor versus without” value ([12]; for all the bacterial strains (strains B, C, D and F), summary of Tables 51 and 52) was “higher antibacterial activity”, the MIC ([13]; Klebsiella pneumoniae, test compound alone (β-lactamase inhibitor N/A), read-out: MIC) was 2 µg/mL and the MIC ([13]; Klebsiella pneumoniae, with AVI at 4 μg/mL, read-out: MIC) was 0.5 µg/mL. For the same compound, the MIC ([13]; Klebsiella pneumoniae, with CVA at 4 μg/mL, read-out: MIC) was 1 µg/mL, the MIC ([13]; Klebsiella pneumoniae, with NAC at 4 μg/mL, read-out: MIC) was 0.03 µg/mL and the MIC ([13]; Klebsiella pneumoniae, with VOB at 4 μg/mL, read-out: MIC) was 1 µg/mL. It also gave an MIC ([13]; Klebsiella pneumoniae, with ZID at 4 μg/mL, read-out: MIC) of 0.03 µg/mL.

`Nc1nc(/C(=N/OC2(C(=O)O)CC2)C(=O)N[C@@H]2C(=O)N3C[C@@](C(=O)O)(N4CCN(NC(=O)C(=O)c5ccc(O)c(O)c5Cl)C4=O)S[C@H]23)cs1` [Compound E] gave an MIC ([14]; AVI added at 4 μg/mL) of under 0.015 µg/mL, an MIC ([14]; CVA added at 4 μg/mL) of under 0.015 µg/mL and an MIC ([14]; NAC added at 4 μg/mL) of under 0.015 µg/mL. It also gave an MIC ([14]; SBT added at 4 μg/mL) of under 0.015 µg/mL, an MIC ([14]; TAZ added at 4 μg/mL) of under 0.015 µg/mL and an MIC ([14]; ZID added at 4 μg/mL) of under 0.015 µg/mL. The MIC [14, 16] was 0.06 µg/mL, the MIC ([1]; AVI added at 4 μg/mL) was 0.12 µg/mL and the MIC ([1]; NAC added at 4 μg/mL) was under 0.015 µg/mL. It also gave an MIC ([1]; ZID added at 4 μg/mL) of under 0.015 µg/mL, an MIC [1, 16] of 0.25 µg/mL and an MIC ([2]; AVI added at 4 μg/mL) of 0.12 µg/mL. The MIC ([2]; NAC added at 4 μg/mL) was under 0.015 µg/mL, the MIC ([2]; ZID added at 4 μg/mL) was under 0.015 µg/mL and the MIC [2, 16] was 1 µg/mL. It also gave an MIC ([13]; AVI added at 4 μg/mL) of 0.25 µg/mL, an MIC ([13]; NAC added at 4 μg/mL) of under 0.015 µg/mL and an MIC ([13]; VAB added at 4 μg/mL) of 1 µg/mL. The MIC ([13]; ZID added at 4 μg/mL) was under 0.015 µg/mL, the MIC [13, 16] was 4 µg/mL and the “antibacterial activity in combination with a β-lactamase inhibitor versus without” value [13] was “higher antibacterial activity”. It also gave an MIC [15, 16] of 1 µg/mL, an MIC ([15]; with AVI at 4 μg/mL) of 0.06 µg/mL and an MIC ([15]; with SBT at 4 μg/mL) of 0.5 µg/mL. For the same compound, the MIC ([15]; with TAZ at 4 μg/mL) was 0.25 µg/mL and the MIC ([15]; with VAB at 4 μg/mL) was 0.12 µg/mL.

Compound `CO/N=C(\C(=O)N[C@@H]1C(=O)N2C(C(=O)O)=C(COC(C)=O)CS[C@H]12)c1csc(N)n1` [CTX, cefotaxime sodium, reference compound] has an MIC ([14]; Escherichia coli, test compound alone (β-lactamase inhibitor N/A), read-out: MIC) of over 128 µg/mL.

`CC(C)(O/N=C(\C(=O)N[C@@H]1C(=O)N2C[C@@](C(=O)O)(N3CCN(NC(=O)C(=O)c4ccc(O)c(O)c4Cl)C3=O)S[C@H]12)c1nc(N)sc1Cl)C(=O)O` [Compound D] was tested, and the MIC ([1]; AVI added at 4 μg/mL) was 0.5 µg/mL, the MIC ([1]; NAC added at 4 μg/mL) was 0.06 µg/mL and the MIC ([1]; ZID added at 4 μg/mL) was 0.03 µg/mL. It also gave an MIC [1, 16] of 1 µg/mL, an MIC ([2]; AVI added at 4 μg/mL) of 0.12 µg/mL and an MIC ([2]; NAC added at 4 μg/mL) of under 0.015 µg/mL. For the same compound, the MIC ([2]; ZID added at 4 μg/mL) was under 0.015 µg/mL, the MIC [2, 16] was 0.5 µg/mL and the MIC ([13]; AVI added at 4 μg/mL) was 0.25 µg/mL. For the same compound, the MIC ([13]; NAC added at 4 μg/mL) was under 0.015 µg/mL, the MIC ([13]; ZID added at 4 μg/mL) was under 0.015 µg/mL and the MIC [13, 16] was 2 µg/mL. The “antibacterial activity in combination with a β-lactamase inhibitor versus without” value [13] was “higher antibacterial activity”, the MIC [15, 16] was 0.5 µg/mL and the MIC ([15]; with AVI at 4 μg/mL) was 0.03 µg/mL. It also gave an MIC ([15]; with CVA at 4 μg/mL) of 0.25 µg/mL, an MIC ([15]; with SBT at 4 μg/mL) of 0.25 µg/mL and an MIC ([15]; with TAZ at 4 μg/mL) of 0.06 µg/mL. For the same compound, the MIC ([15]; with VAB at 4 μg/mL) was 0.12 µg/mL.
